Reference: patent US10820591B2, “Substituted sulfonyl amides for controlling animal pests” (Bayer Aktiengesellschaft, priority 2016, dated 2020)

test system: Meloidogyne incognita; assay: Meloidogyne incognita test (sand, lettuce, gall formation); type: in vivo; settings: 20 ppm, after 14 days
Experimental: Meloidogyne incognita Test [table] To produce a suitable active compound preparation, 1 part by weight of active compound is mixed with the stated amount of solvent and the concentrate is diluted to the desired concentration with water. Vessels are filled with sand, active compound solution, an egg/larvae suspension of the southern root-knot nematode (Meloidogyne incognita) and lettuce seeds. The lettuce seeds germinate and the plants develop. The galls develop on the roots. After 14 days, the nematicidal efficacy in % is determined by the formation of galls. 100% means that no galls were found; 0% means that the number of galls on the treated plants corresponds to the untreated control.

Row | Compound | nematicidal efficacy (formation of galls)
1 | COc1ccc(Cl)c(S(=O)(=O)NC(=O)c2cn(-c3cc(Cl)cc(Cl)c3)cn2)c1 [I-217] | 90%

same assay, conditions: Meloidogyne incognita, 336 h, 20 ppm, after 14 days; read-out: nematicidal efficacy (formation of galls)

Row | Compound | pest or weed control at 20 ppm
2 | O=C(NS(=O)(=O)c1ccccc1)c1cn(-c2ccc(C(F)(F)F)cc2Cl)cn1 [I-194] | 100%
3 | O=C(NS(=O)(=O)c1ccccc1)c1cn(-c2cc(Cl)ccc2Cl)cn1 [I-195] | 100%
4 | O=C(NS(=O)(=O)c1ccccc1Cl)c1cn(-c2ccc(Cl)c(Cl)c2)cn1 [I-196] | 100%
5 | O=C(NS(=O)(=O)c1c(Cl)cccc1Cl)c1cn(-c2ccc(C(F)(F)F)cc2Cl)cn1 [I-198] | 100%
6 | O=C(NS(=O)(=O)c1ccccc1)c1cn(-c2ccc(Cl)cc2Cl)cn1 [I-199] | 100%
7 | O=C(NS(=O)(=O)c1ccccc1Cl)c1cn(-c2ccc(Cl)cc2Cl)cn1 [I-200] | 100%
8 | O=C(NS(=O)(=O)c1ccc(Cl)cc1)c1cn(-c2ccc(Cl)cc2Cl)cn1 [I-201] | 80%
9 | O=C(NS(=O)(=O)c1ccc(Cl)cc1)c1cn(-c2ccc(Cl)c(Cl)c2)cn1 [I-202] | 70%
10 | O=C(NS(=O)(=O)c1ccccc1Cl)c1cn(-c2cc(Cl)ccc2Cl)cn1 [I-203] | 100%
11 | O=C(NS(=O)(=O)c1ccc(Cl)cc1)c1cn(-c2cc(Cl)ccc2Cl)cn1 [I-204] | 100%
12 | O=C(NS(=O)(=O)c1c(Cl)cccc1Cl)c1cn(-c2cc(Cl)ccc2Cl)cn1 [I-205] | 100%
13 | O=C(NS(=O)(=O)c1c(Cl)cccc1Cl)c1cn(-c2ccc(Cl)cc2Cl)cn1 [I-206] | 100%
14 | O=C(NS(=O)(=O)c1cccc(Cl)c1)c1cn(-c2ccc(C(F)(F)F)cc2Cl)cn1 [I-207] | 100%
15 | O=C(NS(=O)(=O)c1ccc(Cl)cc1Cl)c1cn(-c2ccc(Cl)cc2Cl)cn1 [I-208] | 100%
16 | Cc1ccc(-n2cnc(C(=O)NS(=O)(=O)c3ccccc3)c2)cc1 [I-209] | 90%
17 | Cc1ccc(-n2cnc(C(=O)NS(=O)(=O)c3ccccc3Cl)c2)cc1 [I-210] | 100%
18 | COc1ccc(-n2cnc(C(=O)NS(=O)(=O)c3ccccc3)c2)cc1 [I-211] | 100%
19 | Cc1ccc(-n2cnc(C(=O)NS(=O)(=O)c3c(Cl)cccc3Cl)c2)cc1 [I-212] | 90%
20 | COc1ccc(Cl)c(S(=O)(=O)NC(=O)c2cn(-c3ccc(C)cc3)cn2)c1 [I-213] | 90%
21 | O=C(NS(=O)(=O)c1ccccc1Cl)c1cn(-c2ccc(F)cc2F)cn1 [I-215] | 100%
22 | COc1ccc(Cl)c(S(=O)(=O)NC(=O)c2cn(-c3ccc(Cl)cc3Cl)cn2)c1 [I-216] | 90%
23 | COc1ccc(Cl)c(S(=O)(=O)NC(=O)c2cn(-c3ccc(Cl)c(Cl)c3)cn2)c1 [I-218] | 70%
24 | COc1ccc(Cl)c(S(=O)(=O)NC(=O)c2cn(-c3ccc(C(F)(F)F)cc3Cl)cn2)c1 [I-219] | 90%
25 | O=C(NS(=O)(=O)c1ccccc1)c1cn(-c2ccccc2F)cn1 [I-221] | 90%
26 | O=C(NS(=O)(=O)c1c(F)cccc1F)c1cn(-c2cc(Cl)cc(Cl)c2)cn1 [I-222] | 100%
27 | O=C(NS(=O)(=O)c1c(F)cccc1F)c1cn(-c2ccc(C(F)(F)F)cc2Cl)cn1 [I-223] | 100%

Row | Compound | pest or weed control at 20 ppm
28 | O=C(NS(=O)(=O)c1c(F)cccc1F)c1cn(-c2ccccc2OC(F)(F)F)cn1 [I-224] | 90%
29 | O=C(NS(=O)(=O)c1ccccc1Cl)c1cn(-c2ccccc2OC(F)(F)F)cn1 [I-225] | 100%
30 | O=C(NS(=O)(=O)c1c(Cl)cccc1Cl)c1cn(-c2ccccc2OC(F)(F)F)cn1 [I-226] | 100%
31 | COc1ccc(Cl)c(S(=O)(=O)NC(=O)c2cn(-c3ccccc3OC(F)(F)F)cn2)c1 [I-227] | 100%
32 | COc1ccc(Cl)c(S(=O)(=O)NC(=O)c2cn(-c3ccccc3F)cn2)c1 [I-228] | 90%
33 | O=C(NS(=O)(=O)c1ccccc1Cl)c1cn(-c2ccccc2F)cn1 [I-229] | 100%
34 | O=C(NS(=O)(=O)c1cc(Cl)ccc1Cl)c1cn(-c2cc(Cl)cc(Cl)c2)cn1 [I-230] | 100%
35 | COc1ccc(Cl)cc1S(=O)(=O)NC(=O)c1cn(-c2cc(Cl)ccc2Cl)cn1 [I-231] | 100%
36 | O=C(NS(=O)(=O)c1cc(Cl)ccc1Cl)c1cn(-c2ccccc2F)cn1 [I-232] | 100%
37 | O=C(NS(=O)(=O)c1cc(F)ccc1F)c1cn(-c2cc(Cl)ccc2Cl)cn1 [I-233] | 100%
38 | O=C(NS(=O)(=O)c1cc(F)ccc1F)c1cn(-c2cc(Cl)cc(Cl)c2)cn1 [I-234] | 70%
39 | O=C(NS(=O)(=O)c1cc(C(F)(F)F)ccc1Br)c1cn(-c2cc(Cl)cc(Cl)c2)cn1 [I-235] | 90%
40 | O=C(NS(=O)(=O)c1ccccc1)c1cn(-c2cc(F)cc(Cl)c2)cn1 [I-236] | 90%
41 | O=C(NS(=O)(=O)c1ccccc1)c1cn(-c2cc(F)cc(F)c2)cn1 [I-237] | 90%
42 | O=C(NS(=O)(=O)c1ccccc1Cl)c1cn(-c2cc(F)cc(C(F)(F)F)c2)cn1 [I-238] | 90%
43 | O=C(NS(=O)(=O)c1c(Cl)cccc1Cl)c1cn(-c2cc(F)cc(C(F)(F)F)c2)cn1 [I-239] | 100%
44 | O=C(NS(=O)(=O)c1ccccc1Cl)c1cn(-c2cc(F)cc(Cl)c2)cn1 [I-240] | 100%
45 | O=C(NS(=O)(=O)c1c(Cl)cccc1Cl)c1cn(-c2cc(F)cc(Cl)c2)cn1 [I-241] | 90%
46 | O=C(NS(=O)(=O)c1ccccc1Cl)c1cn(-c2cccc(Cl)c2Cl)cn1 [I-242] | 100%
47 | O=C(NS(=O)(=O)c1c(Cl)cccc1Cl)c1cn(-c2cccc(Cl)c2Cl)cn1 [I-243] | 100%
48 | O=C(NS(=O)(=O)c1ccccc1Cl)c1cn(-c2c(Cl)cccc2Cl)cn1 [I-244] | 100%
49 | O=C(NS(=O)(=O)c1c(Cl)cccc1Cl)c1cn(-c2c(Cl)cccc2Cl)cn1 [I-245] | 100%
50 | COc1ccc(Cl)c(S(=O)(=O)NC(=O)c2cn(-c3cccc(Cl)c3Cl)cn2)c1 [I-246] | 100%
51 | COc1ccc(Cl)c(S(=O)(=O)NC(=O)c2cn(-c3cc(F)cc(Cl)c3)cn2)c1 [I-247] | 100%
52 | O=C(NS(=O)(=O)c1c(F)cccc1F)c1cn(-c2cccc(Cl)c2Cl)cn1 [I-248] | 100%
53 | O=C(NS(=O)(=O)c1c(F)cccc1F)c1cn(-c2cc(F)cc(C(F)(F)F)c2)cn1 [I-249] | 100%

Row | Compound | pest or weed control at 20 ppm
54 | COc1ccc(Cl)c(S(=O)(=O)NC(=O)c2cn(-c3c(Cl)cccc3Cl)cn2)c1 [I-251] | 90%
55 | Cc1nc(C(=O)NS(=O)(=O)c2ccccc2Cl)cn1-c1ccccc1 [I-252] | 100%
56 | Cc1nc(C(=O)NS(=O)(=O)c2ccccc2)cn1-c1ccc(Cl)cc1 [I-256] | 100%
57 | Cc1nc(C(=O)NS(=O)(=O)c2ccccc2Cl)cn1-c1ccc(Cl)cc1 [I-257] | 90%
58 | Cc1nc(C(=O)NS(=O)(=O)c2c(Cl)cccc2Cl)cn1-c1ccc(Cl)cc1 [I-258] | 70%
59 | COc1ccc(Cl)c(S(=O)(=O)NC(=O)c2cn(-c3ccc(Cl)cc3)c(C)n2)c1 [I-259] | 100%
60 | COc1ccc(Cl)c(S(=O)(=O)NC(=O)c2cn(-c3ccccc3F)c(C)n2)c1 [I-260] | 70%
61 | Cc1nc(C(=O)NS(=O)(=O)c2cccc(Cl)c2)cn1-c1ccc(Cl)cc1 [I-261] | 100%
62 | Cc1nc(C(=O)NS(=O)(=O)c2ccc(Cl)cc2)cn1-c1ccc(Cl)cc1 [I-262] | 100%
63 | COc1ccc(Cl)c(S(=O)(=O)NC(=O)c2cn(-c3cccc(Cl)c3Cl)c(C)n2)c1 [I-263] | 90%
64 | Cc1nc(C(=O)NS(=O)(=O)c2c(Cl)cccc2Cl)cn1-c1ccccc1Cl [I-265] | 90%
65 | Cc1nc(C(=O)NS(=O)(=O)c2c(Cl)cccc2Cl)cn1-c1cccc(Cl)c1Cl [I-267] | 100%
66 | Cc1nc(C(=O)NS(=O)(=O)c2ccccc2)cn1-c1ccccc1Cl [I-270] | 90%
67 | Cc1nc(C(=O)NS(=O)(=O)c2ccc(Cl)cc2)cn1-c1cccc(Cl)c1Cl [I-271] | 100%
68 | O=C(NS(=O)(=O)c1ccccc1)c1cn(-c2cc(Cl)cc(C(F)(F)F)c2)cn1 [I-272] | 90%
69 | O=C(NS(=O)(=O)c1ccccc1)c1cn(-c2cc(Br)cc(Br)c2)cn1 [I-273] | 90%
70 | Cc1nc(C(=O)NS(=O)(=O)c2c(Cl)cccc2Cl)cn1-c1cccc(C(F)(F)F)c1 [I-274] | 90%
71 | COc1ccc(Cl)c(S(=O)(=O)NC(=O)c2cn(-c3cccc(C(F)(F)F)c3)c(C)n2)c1 [I-275] | 100%
72 | O=C(NS(=O)(=O)c1ccccc1)c1cn(-c2cc(Br)cc(C(F)(F)F)c2)cn1 [I-276] | 70%
73 | O=C(NS(=O)(=O)c1ccccc1Cl)c1cn(-c2cc(Br)cc(C(F)(F)F)c2)cn1 [I-277] | 70%
74 | O=C(NS(=O)(=O)c1ccccc1Cl)c1cn(-c2cc(Cl)cc(C(F)(F)F)c2)cn1 [I-278] | 90%
75 | COc1ccc(Cl)c(S(=O)(=O)NC(=O)c2cn(-c3cc(Br)cc(C(F)(F)F)c3)cn2)c1 [I-279] | 90%
76 | COc1ccc(Cl)c(S(=O)(=O)NC(=O)c2cn(-c3cc(Cl)cc(C(F)(F)F)c3)cn2)c1 [I-280] | 90%
77 | COc1ccc(Cl)c(S(=O)(=O)NC(=O)c2cn(-c3cc(C)cc(C(F)(F)F)c3)cn2)c1 [I-281] | 90%
